Patent US20220177471A1, “N-1 BRANCHED ALKYL SUBSTITUTED IMIDAZO[4,5-C]QUINOLINE COMPOUNDS, COMPOSITIONS, AND METHODS” (3M INNOVATIVE PROPERTIES COMPANY, priority 2019, published 2022)

Legend:
human TLR8 = target: T1, human TLR8 (Homo sapiens, UniProt Q9NR97); assay: TLR activation, HEK-BLUE-hTLR8 SEAP reporter cells; assay type: cell-based; settings: 16-20 hours, lowest concentration giving SEAP response at least 2x vehicle control, tested 0.01-30 micromolar
T1 construct: host or cells: HEK293 (HEK-BLUE-hTLR8)
T1 sequence (Q9NR97 27-1041): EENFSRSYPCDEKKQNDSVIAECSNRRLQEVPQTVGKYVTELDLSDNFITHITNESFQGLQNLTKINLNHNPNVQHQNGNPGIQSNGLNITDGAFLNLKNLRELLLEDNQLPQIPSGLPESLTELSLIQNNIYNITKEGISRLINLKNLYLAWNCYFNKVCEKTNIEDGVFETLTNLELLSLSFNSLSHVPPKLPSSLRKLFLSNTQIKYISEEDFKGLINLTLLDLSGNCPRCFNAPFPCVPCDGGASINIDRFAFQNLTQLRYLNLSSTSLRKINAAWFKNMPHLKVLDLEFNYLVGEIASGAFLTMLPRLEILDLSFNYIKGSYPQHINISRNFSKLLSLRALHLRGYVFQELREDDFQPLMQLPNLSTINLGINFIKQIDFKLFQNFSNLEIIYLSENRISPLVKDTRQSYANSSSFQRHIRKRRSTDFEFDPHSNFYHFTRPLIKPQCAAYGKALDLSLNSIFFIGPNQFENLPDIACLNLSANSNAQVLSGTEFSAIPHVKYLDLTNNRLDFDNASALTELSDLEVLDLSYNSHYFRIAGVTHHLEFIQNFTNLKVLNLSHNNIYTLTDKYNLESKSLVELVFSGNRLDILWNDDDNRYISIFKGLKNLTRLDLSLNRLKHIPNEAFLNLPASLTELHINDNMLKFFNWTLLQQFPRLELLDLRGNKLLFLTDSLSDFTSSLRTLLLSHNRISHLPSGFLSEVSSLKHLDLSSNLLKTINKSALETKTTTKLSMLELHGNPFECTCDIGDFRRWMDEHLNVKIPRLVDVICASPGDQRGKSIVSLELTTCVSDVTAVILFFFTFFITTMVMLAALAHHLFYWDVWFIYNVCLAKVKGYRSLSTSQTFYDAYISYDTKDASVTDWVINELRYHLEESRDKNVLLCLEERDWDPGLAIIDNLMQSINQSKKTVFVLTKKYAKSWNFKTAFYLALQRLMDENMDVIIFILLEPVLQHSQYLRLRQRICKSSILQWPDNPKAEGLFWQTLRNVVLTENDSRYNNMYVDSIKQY
Description: (§1) HEK-BLUE-hTLR7 or hTLR8 reporter cells were obtained from InvivoGen, San Diego, Calif. According to the manufacturer's description, these reporter cells were prepared by co-transfection of HEK293 cells with an inducible secreted embryonic alkaline phosphatase (SEAP) reporter gene and either the human TLR7 or TLR8 gene. The SEAP reporter gene was placed under the control of an IFN-β minimal promoter fused to five NF-κB and AP-1-binding sites. In the presence of a TLR ligand, activation of NF-κB and AP-1 occurs, resulting in a corresponding increase in SEAP levels.
(§2) In the assay, the HEK cells were grown and maintained using standard cell culture techniques in a growth medium that contained Dulbecco's Modified Eagle Medium (ThermoFisher Scientific Incorporated, Waltham, Mass.) supplemented with 1% penicillin/streptomycin and 10% heat-inactivated Gibco fetal bovine serum (ThermoFisher Scientific). Each compound was solubilized in DMSO to create a 3 mM stock solution. The stock solution was then further diluted with the growth medium to prepare serial dilutions. Each test compound was tested at a concentration of 30, 10, 3.3, 1.1, 0.37, 0.12, 0.04, and 0.01 micromolar using a 96-well format with 5×10^4 cells and 200 microliters of growth medium per well.
(§3) For each compound, hTLR7, hTLR8, and their respective null control HEK cells were screened. DMSO serially diluted into the growth medium served as the vehicle control. Cell culture supernatants containing the SEAP reporter were collected after an incubation period of 16-20 hours in a cell culture incubator (37° C. and 5% CO2), and either analyzed immediately or stored at −80° C. SEAP levels were measured using the colorimetric enzyme assay (QUANTI-BLUE (InvivoGen) according to manufacturer's instructions.
(§4) Specifically, the minimum effective concentration of each compound (micromolar) was determined as the lowest concentration of the compound that produced a SEAP expression response at least 2× greater than that observed with the vehicle control wells.

human TLR7 = target: T2, human TLR7 (Homo sapiens, UniProt Q9NYK1); assay: TLR activation, HEK-BLUE-hTLR7 SEAP reporter cells; assay type: cell-based; settings: 16-20 hours, lowest concentration giving SEAP response at least 2x vehicle control, tested 0.01-30 micromolar
T2 construct: host or cells: HEK293 (HEK-BLUE-hTLR7)
T2 sequence (Q9NYK1 27-1049): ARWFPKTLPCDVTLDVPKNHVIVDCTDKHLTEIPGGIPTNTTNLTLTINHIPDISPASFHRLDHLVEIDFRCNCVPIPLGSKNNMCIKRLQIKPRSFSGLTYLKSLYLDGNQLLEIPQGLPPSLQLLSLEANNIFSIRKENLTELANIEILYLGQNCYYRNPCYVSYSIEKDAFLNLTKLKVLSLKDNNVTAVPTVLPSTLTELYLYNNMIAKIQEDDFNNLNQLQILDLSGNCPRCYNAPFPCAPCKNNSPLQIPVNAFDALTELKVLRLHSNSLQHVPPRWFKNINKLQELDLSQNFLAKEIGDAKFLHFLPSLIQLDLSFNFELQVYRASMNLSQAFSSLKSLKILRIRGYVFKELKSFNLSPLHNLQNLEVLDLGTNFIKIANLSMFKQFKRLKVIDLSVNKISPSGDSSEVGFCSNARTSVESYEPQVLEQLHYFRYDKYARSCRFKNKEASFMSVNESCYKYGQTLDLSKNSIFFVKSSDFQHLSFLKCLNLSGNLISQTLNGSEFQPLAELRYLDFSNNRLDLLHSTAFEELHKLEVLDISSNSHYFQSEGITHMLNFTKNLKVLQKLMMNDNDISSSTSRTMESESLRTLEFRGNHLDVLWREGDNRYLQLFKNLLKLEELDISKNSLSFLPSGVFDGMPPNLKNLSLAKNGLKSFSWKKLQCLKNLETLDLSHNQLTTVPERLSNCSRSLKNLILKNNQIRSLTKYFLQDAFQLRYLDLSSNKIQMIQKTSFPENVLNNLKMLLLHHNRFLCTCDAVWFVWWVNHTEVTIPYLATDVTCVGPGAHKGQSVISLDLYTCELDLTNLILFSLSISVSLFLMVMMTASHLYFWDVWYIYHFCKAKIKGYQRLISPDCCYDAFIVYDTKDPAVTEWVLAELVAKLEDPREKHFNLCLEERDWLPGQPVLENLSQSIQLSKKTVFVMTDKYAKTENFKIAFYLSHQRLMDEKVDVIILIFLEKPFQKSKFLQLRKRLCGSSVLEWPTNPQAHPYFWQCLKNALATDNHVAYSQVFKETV
Description: as §1, §2, §3, §4

Structure (SMILES) | MEC to Produce TLR Activation: TLR 8 (human TLR8) | MEC to Produce TLR Activation: TLR 7 (human TLR7)
CCC[C@@H](n1cnc2c(N)nc3ccccc3c21)C(C)(C)O [Example 13, (3R)-3-(4-aminoimidazo[4,5-c]quinolin-1-yl)-2-methyl-hexan-2-ol] | 10 µM | 0.04 µM
CCC(O)(CC)[C@@H](C)n1cnc2c(N)nc3ccccc3c21 [Example 19, (2R)-2-(4-aminoimidazo[4,5-c]quinolin-1-yl)-3-ethyl-pentan-3-ol] | >30 µM | 3.3 µM
CC(C)(O)Cn1cnc2c(N)nc3ccccc3c21 [Comparative Example 2, 1-(4-aminoimidazo[4,5-c]quinolin-1-yl)-2-methyl-propan-2-ol, reference compound] | >30 µM | 10 µM
C[C@@H](n1cnc2c(N)nc3ccccc3c21)C(C)(C)C [Example 3, 1-[(1R)-1,2,2-trimethylpropyl]imidazo[4,5-c]quinolin-4-amine] | >30 µM | 1.11 µM
CC(C)C[C@H](n1cnc2c(N)nc3ccccc3c21)C(C)(C)O [Example 18, (3S)-3-(4-aminoimidazo[4,5-c]quinolin-1-yl)-2,5-dimethyl-hexan-2-ol] | >30 µM | >30 µM
CCCC[C@@H](n1cnc2c(N)nc3ccccc3c21)C(C)(C)C [Example 8, 1-[(1R)-1-tert-butylpentyl]imidazo[4,5-c]quinolin-4-amine] | >30 µM | ≤0.01 µM
C[C@@H](n1cnc2c(N)nc3ccccc3c21)C(C)(C)O [Example 9, (3R)-3-(4-aminoimidazo[4,5-c]quinolin-1-yl)-2-methyl-butan-2-ol] | >30 µM | 3.3 µM
CCCC[C@H](C(C)C)n1cnc2c(N)nc3ccccc3c21 [Example 7, 1-[(1R)-1-isopropylpentyl]imidazo[4,5-c]quinolin-4-amine] | >30 µM | 0.04 µM
CC(C)[C@@H](C)n1cnc2c(N)nc3ccccc3c21 [Example 1, 1-[(1R)-1,2-dimethylpropyl]imidazo[4,5-c]quinolin-4-amine] | >30 µM | 1.1 µM
C[C@@H](C1CCCCC1)n1cnc2c(N)nc3ccccc3c21 [Example 6, 1-[(1S)-1-cyclohexylethyl]imidazo[4,5-c]quinolin-4-amine] | >30 µM | >30 µM
CC[C@@H](n1cnc2c(N)nc3ccccc3c21)C(C)(C)O [Example 11, (3R)-3-(4-aminoimidazo[4,5-c]quinolin-1-yl)-2-methyl-pentan-2-ol] | >30 µM | 1.1 µM
CCCC[C@@H](n1cnc2c(N)nc3ccccc3c21)C(C)(C)O [Example 15, (3R)-3-(4-aminoimidazo[4,5-c]quinolin-1-yl)-2-methyl-heptan-2-ol] | 10 µM | 0.01 µM
CCCC[C@H](n1cnc2c(N)nc3ccccc3c21)C(C)(C)O [Example 16, (3S)-3-(4-aminoimidazo[4,5-c]quinolin-1-yl)-2-methyl-heptan-2-ol] | >30 µM | >30 µM
